# Results reported in the supplement of paper PMC10307832.
# Experiments:
# Assay in all cases: relative viability (nuclei count vs DMSO), 5 days (fraction); higher = more cells survive
# Selumetinib + Bortezomib = compound: Cn1cnc2c(F)c(Nc3ccc(Br)cc3Cl)c(C(=O)NOCCO)cc21 [Selumetinib] + CC(C)C[C@H](NC(=O)[C@H](Cc1ccccc1)NC(=O)c1cnccn1)B(O)O [Bortezomib] (partner 0.002 µM)
# Procedure, shortened: (§1)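 Lung cancer cell lines were seeded in 1536-well plates and dosed by pin tool the next day, with either a single drug or a fixed anchor-drug dose combined with five library-drug doses (not always all listed) spaced in √10 steps. Five days later, one step fixed the cells and stained their nuclei (final 0.05% Triton X-100, 1% formaldehyde, 1 ug/ml Hoechst), and nuclei were counted on 4× images. Relative viability is the nuclei count in treated wells divided by the count in vehicle wells, and each value is the median of duplicate plates.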
# Venetoclax + Palbociclib = compound: CC1(C)CCC(CN2CCN(c3ccc(C(=O)NS(=O)(=O)c4ccc(NCC5CCOCC5)c([N+](=O)[O-])c4)c(Oc4cnc5[nH]ccc5c4)c3)CC2)=C(c2ccc(Cl)cc2)C1 [Venetoclax] + CC(=O)c1c(C)c2cnc(Nc3ccc(N4CCNCC4)cn3)nc2n(C2CCCC2)c1=O [Palbociclib] (partner 0.5 µM)
# Procedure, shortened: as §1
# Selumetinib + Vorinostat = compound: Cn1cnc2c(F)c(Nc3ccc(Br)cc3Cl)c(C(=O)NOCCO)cc21 [Selumetinib] + O=C(CCCCCCC(=O)Nc1ccccc1)NO [Vorinostat] (partner 1 µM)
# Procedure, shortened: as §1
# Venetoclax + Crizotinib = compound: CC1(C)CCC(CN2CCN(c3ccc(C(=O)NS(=O)(=O)c4ccc(NCC5CCOCC5)c([N+](=O)[O-])c4)c(Oc4cnc5[nH]ccc5c4)c3)CC2)=C(c2ccc(Cl)cc2)C1 [Venetoclax] + C[C@@H](Oc1cc(-c2cnn(C3CCNCC3)c2)cnc1N)c1c(Cl)ccc(F)c1Cl [Crizotinib] (partner 1 µM)
# Procedure, shortened: as §1
Cell Line,relative viability (Selumetinib + Bortezomib; first compound 0.02 µM),relative viability (Selumetinib + Bortezomib; first compound 0.06325 µM),relative viability (Selumetinib + Bortezomib; first compound 0.2 µM),relative viability (Selumetinib + Bortezomib; first compound 0.6325 µM),relative viability (Venetoclax + Palbociclib; first compound 0.01 µM),relative viability (Venetoclax + Palbociclib; first compound 0.03162 µM),relative viability (Venetoclax + Palbociclib; first compound 0.1 µM),relative viability (Venetoclax + Palbociclib; first compound 0.3162 µM),relative viability (Venetoclax + Palbociclib; first compound 1 µM),relative viability (Selumetinib + Vorinostat; first compound 0.02 µM),relative viability (Selumetinib + Vorinostat; first compound 0.06325 µM),relative viability (Selumetinib + Vorinostat; first compound 0.2 µM),relative viability (Selumetinib + Vorinostat; first compound 0.6325 µM),relative viability (Venetoclax + Crizotinib; first compound 0.03162 µM),relative viability (Venetoclax + Crizotinib; first compound 0.1 µM),relative viability (Venetoclax + Crizotinib; first compound 0.3162 µM),relative viability (Venetoclax + Crizotinib; first compound 1 µM),relative viability (Venetoclax + Crizotinib; first compound 0.01 µM)
EPLC-272H,0.966,0.864,0.779,0.567,0.351,0.298,0.345,0.338,0.318,0.312,0.343,0.3,0.256,0.682,0.872,1.11,0.897,–
H3255,0.82,0.801,0.761,0.962,0.34,0.316,0.315,0.33,0.296,0.671,0.752,0.846,0.797,0.824,0.837,0.773,1.05,0.815
HARA,1.03,1.07,1.01,0.861,0.289,0.279,–,0.26,0.272,0.428,–,0.365,0.249,1.07,0.603,1.04,1.08,0.946
HCC-15,0.842,0.677,0.559,0.424,0.755,0.672,0.419,0.655,0.508,0.656,0.586,0.435,0.393,0.839,0.709,0.742,0.617,0.814
